Laboratory results from patent publication US6106864A, “Pharmaceutical formulations containing darifenacin” (Pfizer Inc., priority 1995, dated 2000).

System: muscarinic M3 receptors over M1 receptors
Test: Selectivity for muscarinic M3 receptors over M1 receptors
Settings: metabolite compared with darifenacin; "It appears"

- less selective for muscarinic M3 receptors over M1 receptors in comparison with darifenacin: 6 fold
Compound: NC(=O)C(c1ccccc1)(c1ccccc1)[C@@H]1CCN(CCc2ccc3c(c2)C(O)CO3)C1 (stereo partly shown) [metabolite]
